Results reported in PubChem BioAssay (NCI).
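Five concentrations, 48 hours, 96-well plates. TGI is the concentration that stops growth completely.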

Key:
Assay in all cases: DTP human tumour cell line panel, 48 h
[1] = test system: 786-0 renal
[2] = test system: A498 renal
[3] = test system: A549 NSCLC
[4] = test system: ACHN renal
[5] = test system: BT-549 breast
[6] = test system: CAKI-1 renal
[7] = test system: COLO 205 colon
[8] = test system: DU-145 prostate
[9] = test system: EKVX NSCLC
[10] = test system: HCC-2998 colon
[11] = test system: HCT-116 colon
[12] = test system: HCT-15 colon
[13] = test system: HL-60(TB) leukemia
[14] = test system: HOP-92 NSCLC
[15] = test system: HS 578T breast
[16] = test system: HT29 colon
[17] = test system: IGROV1 ovarian
[18] = test system: K-562 leukemia
[19] = test system: KM12 colon
[20] = test system: LOX IMVI melanoma
[21] = test system: M14 melanoma
[22] = test system: MALME-3M melanoma
[23] = test system: MCF7 breast
[24] = test system: MDA-MB-231 breast
[25] = test system: MDA-MB-435
[26] = test system: MDA-N
[27] = test system: NCI-H226 lung
[28] = test system: NCI-H23 lung
[29] = test system: NCI-H460 lung
[30] = test system: NCI-H522 lung
[31] = test system: NCI/ADR-RES ovarian
[32] = test system: OVCAR-3 ovarian
[33] = test system: OVCAR-4 ovarian
[34] = test system: OVCAR-5 ovarian
[35] = test system: OVCAR-8 ovarian
[36] = test system: PC-3 prostate
[37] = test system: RPMI-8226 leukemia
[38] = test system: SF-268 CNS
[39] = test system: SF-295 CNS
[40] = test system: SF-539 CNS
[41] = test system: SK-MEL-2 melanoma
[42] = test system: SK-MEL-28 melanoma
[43] = test system: SK-MEL-5 melanoma
[44] = test system: SK-OV-3 ovarian
[45] = test system: SN12C renal
[46] = test system: SNB-19 CNS
[47] = test system: SW-620 colon
[48] = test system: T-47D breast
[49] = test system: TK-10 renal
[50] = test system: U251 CNS
[51] = test system: UACC-257 melanoma
[52] = test system: UACC-62 melanoma
[53] = test system: UO-31 renal
[54] = test system: CCRF-CEM leukemia
[55] = test system: HOP-62 NSCLC
[56] = test system: MOLT-4 leukemia
[57] = test system: RXF 393 renal
[58] = test system: SNB-75 CNS
[59] = test system: SR leukemia

Measured: TGI

O=c1[nH]nc(Cc2ccc([N+](=O)[O-])cc2)n1CCO
not listed: [54] | [55] | [56] | [57] | [58] | [59]
> 100 µM: all other assays above

Nc1cccc(Nc2nc3ccccc3nc2NS(=O)(=O)c2ccccc2)c1
62.4 µM: [25]
35.3 µM: [50]
57.8 µM: [59]
80.3 µM: [6]
46.1 µM: [52]
52.5 µM: [37]
44.9 µM: [5]
33.9 µM: [10]
50.4 µM: [53]
38.7 µM: [57]
29.8 µM: [43]
32.9 µM: [11]
46.7 µM: [54]
41.7 µM: [19]
31.3 µM: [41]
72.7 µM: [22]
46.5 µM: [33]
62.6 µM: [16]
71.1 µM: [29]
74.2 µM: [12]
42.6 µM: [28]
86.9 µM: [17]
36 µM: [24]
62.2 µM: [46]
48.9 µM: [56]
44.2 µM: [47]
76.3 µM: [18]
29.7 µM: [7]
49.7 µM: [36]
78 µM: [14]
96.2 µM: [55]
45.3 µM: [40]
49.3 µM: [42]
71.8 µM: [21]
46.6 µM: [13]
47.3 µM: [20] | [32]
not listed: [2] | [30]
> 100 µM: all other assays above

COc1ccc2c(c1)[C@@]13CCCC[C@H]1[C@@H](C2)N(C)CC3=O
31 µM: [21]
37.5 µM: [16]
40.7 µM: [49]
30.9 µM: [20]
41 µM: [3]
50.4 µM: [45]
42.1 µM: [35]
42.7 µM: [25]
31.4 µM: [5]
32.7 µM: [52]
32.9 µM: [30] | [32] | [53]
33.3 µM: [33] | [34]
30 µM: [42]
30.5 µM: [51]
58.9 µM: [50]
57.9 µM: [27]
36.4 µM: [24]
33.2 µM: [23] | [48]
32.1 µM: [12]
31.2 µM: [7]
29.7 µM: [11]
45.2 µM: [8]
28.9 µM: [26]
31.5 µM: [10]
33.6 µM: [19]
66.6 µM: [15]
84.4 µM: [31]
30.4 µM: [4]
31.8 µM: [28]
96.8 µM: [37]
69.5 µM: [29]
33.1 µM: [22]
29 µM: [36]
35.8 µM: [38]
61 µM: [43]
53.9 µM: [41] | [44]
29.1 µM: [57]
28.4 µM: [14]
73.6 µM: [54]
42 µM: [59]
43.4 µM: [9]
32.8 µM: [1] | [17]
not listed: [2] | [40] | [47] | [58]
> 100 µM: all other assays above

N#Cc1c(-c2ccccc2)nc(-c2ccccc2)sc1=S
not listed: [30] | [36] | [56] | [59]
> 100 µM: all other assays above

CN(NC(=O)c1cccs1)C1=NCCCN1
not listed: [6] | [8] | [45]
> 100 µM: all other assays above

O=C1NC(N/N=C/C(O)C(O)C(O)CO)=N/C1=C\c1ccco1 (configuration not stated)
not listed: [36] | [41] | [53] | [59]
> 100 µM: all other assays above

COc1cc2c(cc1O)C1Cc3ccc(OC)c(O)c3C(C2)N1C (configuration not stated)
not listed: [18] | [58] | [59]
> 100 µM: all other assays above
